Here are results for 85 compounds from PubChem BioAssay AID1320 (NMMLSC, 2008).

Calls of active or inactive are those of the source. The rule behind the calls is not given here.

Sequence of Bcl-2-related protein A1 (Homo sapiens) (Q16548 whole entry, looked up): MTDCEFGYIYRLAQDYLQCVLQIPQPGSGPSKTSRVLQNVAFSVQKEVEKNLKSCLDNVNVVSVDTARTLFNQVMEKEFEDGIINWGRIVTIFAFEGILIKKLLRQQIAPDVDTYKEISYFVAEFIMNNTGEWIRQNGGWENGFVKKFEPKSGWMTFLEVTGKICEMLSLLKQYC

The first test concerns the target Bcl-2-related protein A1 (Homo sapiens) (UniProt Q16548). Description: inhibitors of Bim binding to Bfl-1, dose response, biochemical, multiplexed, bead-based flow cytometry (AID 1320). For percent span (inhibition): test concentration not given here. To be noted: Bim peptide-Bfl-1 binding, fluorescence. In general terms: In flow cytometry, cells or beads pass a laser one at a time.
Consider `Cc1cccc(N2C(S)=C(C#N)C(=O)NC2c2cccs2)c1` (stereo not given), for which the EC50 result is “inactive”.

Still in this test, the particulars now being: Bim peptide-Bfl-1 binding, fluorescence.
`Cc1ccc(-c2cc(C(=O)Nc3cc(C(=O)O)ccc3C)c3ccccc3n2)cc1`: the “percent span (inhibition)” value is “inactive”.
On the same count and under the same terms, the value for `CC1Nc2ccccc2C(=O)N1NS(C)(=O)=O` (stereo not given) was “inactive”; that for `CN(C)C(=O)N1CCC(C(=O)NC2CCCCCCC2)CC1` was “inactive”.
Still for that read-out and setting: the value for `COc1ccc2nc(C)cc(SCC(=O)N/N=C/c3ccc(O)cc3O)c2c1` was “inactive”; that for `O=C(O)/C=C/C(=O)NNC(=O)c1ccc(Br)cc1` was “inactive”; that for `COc1ccc(C2=Nn3c(nnc3-c3ccco3)SC2)cc1OC` was “inactive”.
For the compound `COc1ccc(NS(=O)(=O)c2cc(NC(=O)c3ccc(C)o3)ccc2N2CCCCC2)cc1`, the “percent span (inhibition)” value is “inactive”.
Turning to `COc1cc(N2CCOCC2)ccc1C=C1C(=O)NC(=O)NC1=O`, the “percent span (inhibition)” value was “inactive”.
`CSc1ccccc1NC(=O)CN(C)CC(=O)Nc1ccc(N2CCOCC2)cc1`: the “percent span (inhibition)” value is “inactive”.
As for `CCOc1cc(/C=C2/N=C(C)C(C(=O)OC)=C2O)ccc1O`, the “percent span (inhibition)” value was “inactive”.
The same measure, in the same setting: the value for `O=C(CNC(=O)c1ccc(S(=O)(=O)N2CCCC2)cc1)N/N=C/c1ccc(Cl)cc1Cl` was “inactive”; that for `COc1ccc2nc(NC(=O)c3ccc(-c4cccc([N+](=O)[O-])c4)o3)sc2c1` was “inactive”.
Still for that read-out and setting: next, `Cc1cc(C)cc(-n2c(C)nc3cc(C(=O)O)ccc32)c1`: “inactive”; `O=C(NCCN1CCOCC1)c1cc(Cl)ccc1[N+](=O)[O-]`: “inactive”.
On to `Clc1ccc2c(N/N=C/c3cccc(Br)c3)ccnc2c1`, for which the “percent span (inhibition)” value was “inactive”.
On to `Cc1onc(-c2ccccc2Cl)c1C(=O)Nc1nn[nH]n1`, for which the “percent span (inhibition)” value is “inactive”.
In the case of `O=S1(=O)N=C(N(CCO)/N=C/C=C/c2ccccc2)c2ccccc21`, the “percent span (inhibition)” value was “inactive”.
Still for that read-out and setting: the value for `C=CCSc1nc(N)c2c(C)c(C)sc2n1` was “inactive”; that for `Fc1ccc(C2=Nn3c(Cc4ccccc4F)nnc3SC2)cc1` was “inactive”; that for `Brc1ccc2ncnc(Nc3ccc(N4CCOCC4)cc3)c2c1` was “inactive”.
Turning to `CC(C)COC(=O)/C(C#N)=C/c1cn(Cc2ccccc2)c2ccccc12`, the “percent span (inhibition)” value was “inactive”.
On the same count and under the same terms, the value for `CC1Nc2ccccc2C(=O)N1NS(=O)(=O)c1ccccc1` (stereo not given) was “inactive”.
On to `O=C(C1=NN[C@@H]2C(=O)N(c3ccccc3C(F)(F)F)C(=O)[C@H]12)c1ccc2ccccc2n1`, for which the “percent span (inhibition)” value was “inactive”.
In the case of `Cc1cccc(C(=O)N2CCC(c3nc(-c4ccc(S(=O)(=O)N5CCOCC5)cc4)no3)CC2)c1`, the “percent span (inhibition)” value was “inactive”.
`CCCOc1ccc(-c2c(C(=O)N/N=C/c3ccc(OC)cc3)nnn2-c2nonc2N)cc1`: the “percent span (inhibition)” value was “inactive”.
`Fc1ccc(Cn2nnnc2C(c2ccc(Cl)cc2)N2CCSCC2)cc1` (stereo not given): the “percent span (inhibition)” value was “inactive”.
`O=C(COc1ccccc1)N1CCN(c2ncnc3c2cnn3-c2ccccc2)CC1`: the “percent span (inhibition)” value was “inactive”.
On the same count and under the same terms, the value for `COc1cc(/C=N/NC(=O)c2ccc([N+](=O)[O-])cc2Cl)cc(Br)c1O` was “inactive”; that for `COc1ccc2oc(-c3ccccc3)c(C(=O)N3CCOCC3)c2c1` was “inactive”.
For the compound `O=C(COc1ccc(Br)cc1CNC1CCCCC1)NCCc1ccccc1`, the “percent span (inhibition)” value was “inactive”.
On the same count and under the same terms, next, `COc1cc(/C=C2\S/C(=N/S(=O)(=O)c3ccc(C)cc3)NC2=O)c([N+](=O)[O-])cc1OC`: “inactive”; `Cc1cc(-c2nn(-c3ccccc3)cc2/C=C2\SC(N)=NC2=O)ccc1OC(C)C`: “inactive”; `O=C(Nc1ccccc1N1CCOCC1)c1cccs1`: “inactive”.
Still for that read-out and setting: the value for `NCC(c1ccccc1)c1c[nH]c2ccccc12` (stereo not given) was “inactive”; that for `CN=c1scc(C)n1/N=C/c1ccc(O)c(O)c1O` was “inactive”.
Regarding `O=C(Nc1ccccc1)Nc1ccc2ncoc2c1`, the “percent span (inhibition)” value is “inactive”.
Same read-out and setting: next, `CCc1ccc(NC(=O)Cc2ccc(OC)cc2)cc1`: “inactive”; `COc1ccc(NC(=O)c2cccs2)cc1`: “inactive”; `CCNCc1cc(Br)c(OCC(=O)Nc2ccccc2)c(OC)c1`: “inactive”.
Still for that read-out and setting: next, `Cc1ccccc1-c1nc(-c2ccc(NC(=O)c3ccc4c(c3)OCO4)cc2)no1`: “inactive”; `CCOC(=O)c1cc2c(=O)n3cccc(C)c3nc2n(Cc2ccco2)c1=NC(=O)c1ccccc1`: “inactive”; `COc1ccc(NC(=O)COc2ncnc3ccccc23)cc1S(=O)(=O)N1CCOCC1`: “inactive”.
Take `C(=C\c1ccccc1)/CSc1nnc(-c2ccccn2)n1Cc1ccco1`: the “percent span (inhibition)” value is “inactive”.
The same measure, in the same setting: next, `CC(=O)N1CCN(C(=O)c2ccc(-n3c(C)ccc3C)cc2)CC1`: “inactive”; `CC(C)(C)C1CCC(=NNC(=O)c2cc3c(s2)CCCC3)CC1` (stereo not given): “inactive”; `O=C(Nc1cccc(Cl)c1)Nc1ccnc(-c2cccnc2)n1`: “inactive”.
`Cc1ccc(NC(=O)c2cc(S(=O)(=O)NCCC3=CCCCC3)ccc2F)cc1F`: the “percent span (inhibition)” value was “inactive”.
In the case of `COC(=O)CSc1nccc(-c2cccs2)n1`, the “percent span (inhibition)” value was “inactive”.
Same read-out and setting: next, `Nc1ccc(Nc2nc(-c3ccncc3)cs2)cc1`: “inactive”.
Same read-out and setting: next, `COc1ccccc1NC(=O)CSc1nnc(-c2ccco2)n1Cc1ccco1`: “inactive”; `COC(=O)c1sc2nc[nH]c(=O)c2c1C`: “inactive”; `COc1ccc(-c2csc(NC(=O)/C(N=Nc3ccccc3)=C(\C)O)n2)cc1`: “inactive”.
Still for that read-out and setting: the value for `Cc1ccc(Nc2nc(-c3c(C)nc4ncccn34)cs2)cc1` was “inactive”; that for `Cc1cc(C)c[n+](-c2nc3ccccc3nc2C(=C=[N-])C#N)c1` was “inactive”; that for `CCc1cccc(NC(=O)COc2ccccc2)c1` was “inactive”.
For `CC(C(=O)Nc1ccc([N+](=O)[O-])cc1)N1CCN(C/C=C/c2ccccc2)CC1` (stereo not given), the “percent span (inhibition)” value was “inactive”.
Consider `CCCn1c(C)cc(-c2csc(N)n2)c1C`, for which the “percent span (inhibition)” value is “inactive”.
Still for that read-out and setting: next, `CCC(CC)C(=O)Nc1cccc(SC)c1`: “inactive”; `COc1cc(/C=C2/NC(=O)N(Cc3ccccc3F)C2=O)ccc1O`: “inactive”.
Same read-out and setting: next, `Cc1nc2cc(F)ccc2n1C1CCN(C(=O)c2c(F)cccc2F)CC1`: “inactive”; `O=C(CSc1nnc(-c2cccs2)n1Cc1ccco1)c1ccc2c(c1)OCO2`: “inactive”; `CCOc1ccc(C(=O)Nc2nnn(CC)n2)cc1`: “inactive”.
For `Cc1ccc(C)c(N2CCN(C(=S)Nc3ccc4nc(N5CCN(C)CC5)cc(C)c4c3)CC2)c1`, the “percent span (inhibition)” value was “inactive”.
Same read-out and setting: the value for `O=C(CSc1nnc(-c2ccccc2)c(-c2ccccc2)n1)N1CCc2ccccc21` was “inactive”; that for `Cc1ccc(/C=N/N(C)C2=NS(=O)(=O)c3ccccc32)o1` was “inactive”; that for `Cc1ccc(-c2cc(-c3ccccc3Cl)c(C#N)c(N)n2)o1` was “inactive”.
As for `O=C1C(Cl)=C(Nc2ccccc2O)C(=O)N1c1ccccc1`, the “percent span (inhibition)” value is “inactive”.
For the compound `CC(NC(=O)Nc1ccccn1)N1C(=O)C2C3C=CC(C3)C2C1=O` (stereo not given), the “percent span (inhibition)” value is “inactive”.
In the case of `O=C(N/N=C/c1cccnc1)c1cccc(S(=O)(=O)N2CCCC2)c1`, the “percent span (inhibition)” value is “inactive”.
Still for that read-out and setting: the value for `CCOC(=O)c1sc(NC(=O)c2ccncc2)c(C#N)c1C` was “inactive”; that for `CN(C)[C@@H]1C(=O)C(C(=O)NCN2CCCC2)=C(O)[C@@]2(O)C(=O)C3=C(O)c4c(O)cccc4[C@@](C)(O)C3CC12` (stereo not given in full) was “inactive”; that for `O=C(NCC1CCCO1)c1ccc2c(=O)n(-c3ccc(F)cc3)c(=S)[nH]c2c1` (stereo not given) was “inactive”.
Same read-out and setting: next, `Cc1ccccc1-n1c(SCc2cccc(F)c2)nc2[nH]ncc2c1=O`: “inactive”; `COc1ccc(Cl)cc1-n1c(C)cc(C=O)c1C`: “inactive”; `COc1ccc(CC(=O)Nc2ccc(-c3nc4cc(C)ccc4o3)c(O)c2)cc1OC`: “inactive”.
Still for that read-out and setting: next, `COc1cccc(-n2nnnc2SCC(=O)Nc2cccc(NC(C)=O)c2)c1`: “inactive”.
As for `COc1cc(/C=C2\S/C(=N/S(=O)(=O)c3ccccc3)NC2=O)c([N+](=O)[O-])cc1OC`, the “percent span (inhibition)” value was “inactive”.
On the same count and under the same terms, next, `O=C(C[n+]1ccc(-c2nnc3n2CCC3)cc1)c1ccc(Cl)cc1`: “inactive”; `O=C(/C=C/c1ccc(-c2ccccc2)o1)c1ccccc1`: “inactive”; `COc1ccc(NC(=O)c2ccc(CN3CCN(c4ccccc4)CC3)cc2)cc1`: “inactive”.
As to `O=C(c1cccc(Br)c1)N1CCN(c2cnn(-c3ccccc3)c(=O)c2Cl)CC1`, the “percent span (inhibition)” value is “inactive”.
As for `CCN(CC)c1ccc(-c2nn3c(-c4cccnc4)nnc3s2)cc1`, the “percent span (inhibition)” value is “inactive”.
As for `COc1ccc(Cc2c(O)nc(SC)n(C(C)=O)c2=O)cc1`, the “percent span (inhibition)” value is “inactive”.
In the case of `CN1C(=O)/C(=C/c2ccc(-c3ccccc3[N+](=O)[O-])o2)SC1=Nc1ccc(Cl)c(C(=O)O)c1`, the “percent span (inhibition)” value is “inactive”.
